Results from US20260070945A1, “MACROCYCLIC IMMUNOMODULATORS” (Bristol-Myers Squibb Company, priority 2022, published 2026).
pIC50: −log10 of the molar value. *1 amine or outer side, *2 acyl side, *3 side chain or, on linkers, in order; H or OH if unused. Where a SMILES comes first, the peptide text is derived from it. Bridges are numbered along the chain shown (N, C = ends). [ ]: non-standard residue; d: D form. The star is where a group is joined. Phe(4-COOH) = N[C@@H](Cc1ccc(C(=O)O)cc1)C(=O)O; Bip = N[C@@H](Cc1ccc(-c2ccccc2)cc1)C(=O)O; Phe(4-CN) = N#Cc1ccc(C[C@H](N)C(=O)O)cc1; Phe(3-Me) = Cc1cccc(C[C@H](N)C(=O)O)c1; γGlu = O=C(O)[C@H](CCC(=O)[*:2])N[*:1]; Val(3-OH) = CC(C)(O)[C@H](N)C(=O)O; 4Pal = N[C@@H](Cc1ccncc1)C(=O)O; Cha = N[C@@H](CC1CCCCC1)C(=O)O; Carboxymethyl = O=C(O)C*; NMeA = CN[C@@H](C)C(=O)O; Aun = NCCCCCCCCCCC(=O)O; Dab = NCC[C@H](N)C(=O)O; AEEA = NCCOCCOCC(=O)O

target: T1, PD-1/PD-L1 interaction (PE-labeled human PD-L1-Ig binding to Jurkat cell line over-expressing human PD-1) (Homo sapiens, UniProt Q15116); experiment: Jurkat-PD-1 Cell Binding High-Content Screening Assay (CBA); conditions: Jurkat-hPD-1 cells, PE-labeled PD-L1-Ig 20 nM final; read-out: Jurkat HPD1 PDL1 IC50
T1 construct: expressed in transfected cells; host or cells: Jurkat
T1 sequence (Q15116 25-288): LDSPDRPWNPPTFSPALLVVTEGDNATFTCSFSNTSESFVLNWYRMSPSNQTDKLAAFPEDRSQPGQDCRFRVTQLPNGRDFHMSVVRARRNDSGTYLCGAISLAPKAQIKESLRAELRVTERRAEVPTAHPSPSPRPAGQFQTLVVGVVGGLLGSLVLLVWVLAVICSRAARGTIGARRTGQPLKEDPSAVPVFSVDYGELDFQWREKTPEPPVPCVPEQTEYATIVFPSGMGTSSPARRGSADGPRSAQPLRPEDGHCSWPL
Protocol: Example 2: Jurkat-PD-1 Cell Binding High-Content Screening Assay (CBA)
Phycoerythrin (PE) was covalently linked to the Ig epitope tag of human PD-L1-Ig and fluorescently-labeled PD-L1-Ig was used for binding studies with a Jurkat cell line over-expressing human PD-1 (Jurkat-PD-1). Briefly, 8×10^3 Jurkat-hPD-1 cells were seeded into 384 well plates in 20 μl of DMEM supplemented with 10% fetal calf serum. 100 nl of compound was added to cells followed by incubation at 37° C. for 2 hours. Then, 5 μl of PE-labeled PD-L1-Ig (20 nM final), diluted in DMEM supplemented with 10% fetal calf serum. After 1 hour incubation, cells were fixed with […] in dPBS containing 10 μg/ml Hoechst 33342 and then washed 3× in 100 μl dPBS. Data was collected and processed using a Cell Insight NXT High Content Imager and associated software.

SMILES | pIC50
CC(C)C[C@@H]1NC(=O)[C@H](Cc2c[nH]c3ccccc23)NC(=O)[C@H](CC(=O)O)NC(=O)[C@H](Cc2ccc(C(=O)O)cc2)NC(=O)[C@H](Cc2ccc(OCC(=O)O)cc2)NC(=O)CSC[C@@H](C(=O)N[C@@H](CCN)C(=O)NCCCCCCCCCCC(=O)O)NC(=O)[C@H](CCC(N)=O)NC(=O)[C@H](C(C)C)NC(=O)[C@H](CC2CCCCC2)NC(=O)[C@H](CCN)NC(=O)[C@@H](CC(C)C)NC(=O)[C@H](C)N(C)C(=O)[C@H](C(C)C)NC(=O)[C@H](Cc2ccc(-c3ccccc3)cc2)NC1=O [Example 1000] ({CH2CO}-Y(Carboxymethyl)[Phe(4-COOH)]DWL[Bip]V[NMeA][dL][Dab][Cha]VQC[Dab][Aun]-OH; thioether N-14) | 7.63
Cc1cccc(C[C@@H]2NC(=O)[C@H](CC(=O)O)NC(=O)[C@H](Cc3ccc(C(=O)O)cc3)NC(=O)[C@H](Cc3ccc(OCC(=O)O)cc3)NC(=O)CSC[C@@H](C(=O)N[C@@H](CC(=O)O)C(=O)NCCCCCCCCCCC(=O)O)NC(=O)[C@H](CO)NC(=O)[C@H](C(C)C)NC(=O)[C@H](CC(C)C)NC(=O)[C@H](CC(N)=O)NC(=O)[C@@H](CC(C)C)NC(=O)[C@H](C)N(C)C(=O)[C@H](C(C)C)NC(=O)[C@H](Cc3ccc(-c4ccccc4)cc3)NC(=O)[C@H](CC(C)C)NC2=O)c1 [Example 1001] ({CH2CO}-Y(Carboxymethyl)[Phe(4-COOH)]D[Phe(3-Me)]L[Bip]V[NMeA][dL]NLVSCD[Aun]-OH; thioether N-14 (inferred)) | 7.04
Cc1cccc(C[C@@H]2NC(=O)[C@H](CC(=O)O)NC(=O)[C@H](Cc3ccc(C(=O)O)cc3)NC(=O)[C@H](Cc3ccc(C#N)cc3)NC(=O)CSC[C@@H](C(=O)N[C@@H](CCN)C(=O)NCCCCCCCCCCC(=O)O)NC(=O)[C@H](CO)NC(=O)[C@H](C(C)(C)O)NC(=O)[C@H](CC3CCCCC3)NC(=O)[C@H](CCN)NC(=O)[C@@H](CC(C)C)NC(=O)[C@H](C)N(C)C(=O)[C@H](Cc3ccc(OCC(=O)O)cc3)NC(=O)[C@H](Cc3ccc(-c4ccccc4)cc3)NC(=O)[C@H](Cc3ccc(OCC(=O)O)cc3)NC2=O)c1 [Example 1002] ({CH2CO}-[Phe(4-CN)][Phe(4-COOH)]D[Phe(3-Me)]Y(Carboxymethyl)[Bip]Y(Carboxymethyl)[NMeA][dL][Dab][Cha][Val(3-OH)]SC[Dab][Aun]-OH; thioether N-14) | 7.96
Cc1cccc(C[C@@H]2NC(=O)[C@H](CC(=O)O)NC(=O)[C@H](Cc3ccc(C(=O)O)cc3)NC(=O)[C@H](Cc3ccc(OCC(=O)O)cc3)NC(=O)CSC[C@@H](C(=O)N[C@@H](CCC(=O)O)C(=O)NCCCCCCCCCCC(=O)O)NC(=O)[C@H](CO)NC(=O)[C@H](C(C)C)NC(=O)[C@H](CC(C)C)NC(=O)[C@H](CC(N)=O)NC(=O)[C@@H](CC(C)C)NC(=O)[C@H](C)N(C)C(=O)[C@H](C(C)C)NC(=O)[C@H](Cc3ccc(-c4ccccc4)cc3)NC(=O)[C@H](CC(C)C)NC2=O)c1 [Example 1003] ({CH2CO}-Y(Carboxymethyl)[Phe(4-COOH)]D[Phe(3-Me)]L[Bip]V[NMeA][dL]NLVSCE[Aun]-OH; thioether N-14) | 7.70
Cc1cccc(C[C@@H]2NC(=O)[C@H](CC(=O)O)NC(=O)[C@H](Cc3ccc(C(=O)O)cc3)NC(=O)[C@H](Cc3ccc(OCC(=O)O)cc3)NC(=O)CSC[C@@H](C(=O)NCC(=O)N[C@@H](CCC(=O)O)C(=O)NCCCCCCCCCCC(=O)O)NC(=O)[C@H](CO)NC(=O)[C@H](C(C)C)NC(=O)[C@H](CC(C)C)NC(=O)[C@H](CC(N)=O)NC(=O)[C@@H](CC(C)C)NC(=O)[C@H](C)N(C)C(=O)[C@H](C(C)C)NC(=O)[C@H](Cc3ccc(-c4ccccc4)cc3)NC(=O)[C@H](CC(C)C)NC2=O)c1 [Example 1005] ({CH2CO}-Y(Carboxymethyl)[Phe(4-COOH)]D[Phe(3-Me)]L[Bip]V[NMeA][dL]NLVSCGE[Aun]-OH; thioether N-14) | 7.31
Cc1cccc(C[C@@H]2NC(=O)[C@H](CC(=O)O)NC(=O)[C@H](Cc3ccc(C(=O)O)cc3)NC(=O)[C@H](Cc3ccc(OCC(=O)O)cc3)NC(=O)CSC[C@@H](C(=O)NCCCCCCCCCCC(=O)O)NC(=O)[C@H](CO)NC(=O)[C@H](C(C)C)NC(=O)[C@H](CC(C)C)NC(=O)[C@H](CC(N)=O)NC(=O)[C@@H](CC(C)C)NC(=O)[C@H](C)N(C)C(=O)[C@H](C(C)C)NC(=O)[C@H](Cc3ccc(-c4ccccc4)cc3)NC(=O)[C@H](CC(C)C)NC2=O)c1 [Example 1007] ({CH2CO}-Y(Carboxymethyl)[Phe(4-COOH)]D[Phe(3-Me)]L[Bip]V[NMeA][dL]NLVSC[Aun]-OH; thioether N-14) | 6.95
Cc1cccc(C[C@@H]2NC(=O)[C@H](CC(=O)O)NC(=O)[C@H](Cc3ccc(C(=O)O)cc3)NC(=O)[C@H](Cc3ccc(OCC(=O)O)cc3)NC(=O)CSC[C@@H](C(=O)NCC(=O)NCCOCCOCC(=O)NCCCCCCCCCCC(=O)O)NC(=O)[C@H](CO)NC(=O)[C@H](C(C)C)NC(=O)[C@H](CC(C)C)NC(=O)[C@H](CC(N)=O)NC(=O)[C@@H](CC(C)C)NC(=O)[C@H](C)N(C)C(=O)[C@H](C(C)C)NC(=O)[C@H](Cc3ccc(-c4ccccc4)cc3)NC(=O)[C@H](CC(C)C)NC2=O)c1 [Example 1011] ({CH2CO}-Y(Carboxymethyl)[Phe(4-COOH)]D[Phe(3-Me)]L[Bip]V[NMeA][dL]NLVSCG[AEEA][Aun]-OH; thioether N-14) | 7.61
Cc1cccc(C[C@@H]2NC(=O)[C@H](CC(=O)O)NC(=O)[C@H](Cc3ccc(C(=O)O)cc3)NC(=O)[C@H](Cc3ccc(OCC(=O)O)cc3)NC(=O)CSC[C@@H](C(=O)NCC(=O)N[C@@H](CCC(=O)O)C(=O)NCCOCCOCC(=O)N[C@@H](CCC(=O)NCCCCCCCCCCC(=O)O)C(=O)O)NC(=O)[C@H](CO)NC(=O)[C@H](C(C)C)NC(=O)[C@H](CC(C)C)NC(=O)[C@H](CC(N)=O)NC(=O)[C@@H](CC(C)C)NC(=O)[C@H](C)N(C)C(=O)[C@H](C(C)C)NC(=O)[C@H](Cc3ccc(-c4ccccc4)cc3)NC(=O)[C@H](CC(C)C)NC2=O)c1 [Example 1013] ({CH2CO}-Y(Carboxymethyl)[Phe(4-COOH)]D[Phe(3-Me)]L[Bip]V[NMeA][dL]NLVSCGE[AEEA][γGlu][Aun]-OH; thioether N-14) | 7.44
Cc1cccc(C[C@@H]2NC(=O)[C@H](CC(=O)O)NC(=O)[C@H](Cc3ccc(C(=O)O)cc3)NC(=O)[C@H](Cc3ccc(OCC(=O)O)cc3)NC(=O)CSC[C@@H](C(=O)NCC(=O)N[C@@H](CCC(=O)NCCOCCOCC(=O)N[C@@H](CC(=O)O)C(=O)NCCCCCCCCCCC(=O)O)C(=O)O)NC(=O)[C@H](CO)NC(=O)[C@H](C(C)C)NC(=O)[C@H](CC(C)C)NC(=O)[C@H](CC(N)=O)NC(=O)[C@@H](CC(C)C)NC(=O)[C@H](C)N(C)C(=O)[C@H](C(C)C)NC(=O)[C@H](Cc3ccc(-c4ccccc4)cc3)NC(=O)[C@H](CC(C)C)NC2=O)c1 [Example 1014] ({CH2CO}-Y(Carboxymethyl)[Phe(4-COOH)]D[Phe(3-Me)]L[Bip]V[NMeA][dL]NLVSCG[γGlu][AEEA]D[Aun]-OH; thioether N-14) | 7.31
Cc1cccc(C[C@@H]2NC(=O)[C@H](CC(=O)O)NC(=O)[C@H](Cc3ccc(C(=O)O)cc3)NC(=O)[C@H](Cc3ccc(OCC(=O)O)cc3)NC(=O)CSC[C@@H](C(=O)NCC(=O)N[C@@H](CCC(=O)NCCOCCOCC(=O)N[C@@H](CCC(=O)O)C(=O)NCCCCCCCCCCC(=O)O)C(=O)O)NC(=O)[C@H](CO)NC(=O)[C@H](C(C)C)NC(=O)[C@H](CC(C)C)NC(=O)[C@H](CC(N)=O)NC(=O)[C@@H](CC(C)C)NC(=O)[C@H](C)N(C)C(=O)[C@H](C(C)C)NC(=O)[C@H](Cc3ccc(-c4ccccc4)cc3)NC(=O)[C@H](CC(C)C)NC2=O)c1 [Example 1015] ({CH2CO}-Y(Carboxymethyl)[Phe(4-COOH)]D[Phe(3-Me)]L[Bip]V[NMeA][dL]NLVSCG[γGlu][AEEA]E[Aun]-OH; thioether N-14) | 7.27
Cc1cccc(C[C@@H]2NC(=O)[C@H](CC(=O)O)NC(=O)[C@H](Cc3ccncc3)NC(=O)[C@H](Cc3ccc(OCC(=O)O)cc3)NC(=O)CSC[C@@H](C(=O)NCC(=O)N[C@@H](CCC(=O)NCCOCCOCC(=O)N[C@@H](CCC(=O)NCCOCCOCC(=O)NCCCCCCCCCCC(=O)O)C(=O)O)C(=O)O)NC(=O)[C@H](CO)NC(=O)[C@H](C(C)C)NC(=O)[C@H](CC(C)C)NC(=O)[C@H](CC(N)=O)NC(=O)[C@@H](CC(C)C)NC(=O)[C@H](C)N(C)C(=O)[C@H](C(C)C)NC(=O)[C@H](Cc3ccc(-c4ccccc4)cc3)NC(=O)[C@H](CC(C)C)NC2=O)c1 [Example 1016] ({CH2CO}-Y(Carboxymethyl)[4Pal]D[Phe(3-Me)]L[Bip]V[NMeA][dL]NLVSCG[γGlu][AEEA][γGlu][AEEA][Aun]-OH; thioether N-14) | 7.53

same assay, conditions: PE-labeled PD-L1-Ig 20 nM final, Jurkat-hPD-1 cells; read-out: Jurkat HPD1 PDL1 IC50

SMILES | pIC50
CC(=O)NCCCC[C@@H]1NC(=O)[C@H](C(C)(C)O)NC(=O)[C@H](CC2CCCCC2)NC(=O)[C@H](CCN)NC(=O)[C@@H](CC(C)C)NC(=O)[C@H](C)N(C)C(=O)[C@H](Cc2ccc(C(=O)O)cc2)NC(=O)[C@H](Cc2ccc(-c3ccccc3)cc2)NC(=O)[C@H](Cc2ccc(C(=O)O)cc2)NC(=O)[C@H](Cc2cccc(C)c2)NC(=O)[C@H](CC(=O)O)NC(=O)[C@H](Cc2ccc(OCC(=O)O)cc2)NC(=O)[C@H](C(C)O)NC(=O)CSC[C@@H](C(=O)N[C@@H](CCN)C(=O)NCCOCCOCC(=O)N[C@@H](CCC(=O)NCCCCCCCCCCCCC(=O)O)C(=O)O)NC1=O (mixture of isomers) [Example 2659] | 7.94
